From ChEMBL document CHEMBL4411289, “Antinociceptive Potential of Zinnia grandiflora” (2019)
Activity calls are given as the source filed them. The rule behind the calls is not given here.

Assays:
Mus musculus [1] = assay: Antinociceptive activity in ICR mouse assessed as reduction in licking time at 31.6 mg/kg, po dosed 30 mins before formalin injection and by formalin test; type: functional; parameters: scale not given: the % may be the effect or the level left
Mus musculus [2] = assay: Antinociceptive activity in ICR mouse assessed as reduction in licking time during phase 1 (acute phase) at 3.16 to 31.6 mg/kg, po dosed 30 mins before formalin injection and by formalin test; type: functional, organism-based
Mus musculus [3] = assay: Antinociceptive activity in ICR mouse assessed as reduction in licking time during phase 2 (tonic response phase) at 3.16 to 31.6 mg/kg, po dosed 30 mins before formalin injection and by formalin test; type: functional, organism-based

SMILES | Activity (Mus musculus [1]) | Activity (Mus musculus [2]) | Activity (Mus musculus [3])
O=C(O)Cc1ccccc1Nc1c(Cl)cccc1Cl [DICLOFENAC] | 40.9% | – | –
C=C[C@@]1(C)[C@H]2OC(=O)C(=C)[C@H]([C@@H]2OC(=O)/C(C)=C\C)[C@H](OC(=O)C(C)C)[C@@H]1C(=C)C(=O)O | – | Active | Active
